Calls of active or inactive are those of the source. No cut-off for these calls is given here.
What was measured:
[1] = Toxicity in BALB/c nude mouse assessed as changes in body weight at 5 to 10 mg/kg, ip administered every 2 days; type: organism-based; details: in vivo, 48 h, dose 5-10 mg/kg
[2] = tested on: RKO; assay: Induction of apoptosis in human RKO cells assessed as early apoptotic cells at 2.5 uM incubated for 48 hrs by Annexin V-PE and propidium iodide staining based flow cytometry analysis (reference value: 0.2%); type: functional
[3] = tested on: HCT-116; assay: Induction of cell cycle arrest in human HCT-116 cells assessed as accumulation of cells at G0/G1 phase incubated for 48 hrs by propidium iodide staining based flow cytometry analysis; type: functional; details: dose 2.5-10 µM
[4] = tested on: RKO; assay: Inhibition of colony formation in human RKO cells at 4 uM incubated for 10 days with every 3 days of media replacement by crystal violet staining based assay; type: functional; details: 240 h, time 10 day
[5] = Acute toxicity in BALB/c mouse assessed as liver lesion at 50 to 100 mg/kg, ip measured every 2 days by H and E staining based assay; type: organism-based; details: in vivo, 48 h, dose 50-100 mg/kg
[6] = Acute toxicity in BALB/c mouse assessed as lung lesion at 50 to 100 mg/kg, ip measured every 2 days by H and E staining based assay; type: organism-based; details: in vivo, 48 h, dose 50-100 mg/kg
[7] = tested on: HCT-116; assay: Induction of apoptosis in human HCT-116 cells assessed as necrotic cells at 5 uM incubated for 48 hrs by Annexin V-PE and propidium iodide staining based flow cytometry analysis (reference value: 1.3%); type: functional
[8] = tested on: RKO; assay: Induction of apoptosis in human RKO cells assessed as late apoptotic cells at 10 uM incubated for 48 hrs by Annexin V-PE and propidium iodide staining based flow cytometry analysis (reference value: 0.3%); type: functional
[9] = tested on: HCT-116; assay: Inhibition of cell migration in human HCT-116 cells at 2.5 to 10 uM measured upto 48 hrs by scratch wound healing assay; type: functional, cell-based; details: dose 2.5-10 µM
[10] = tested on: HCT-116; assay: Induction of cell cycle arrest in human HCT-116 cells assessed as upregulation of p21 expression at 2.5 to 10 uM incubated for 48 hrs by Western blotting analysis; type: functional, cell-based; details: dose 2.5-10 µM
[11] = tested on: HCT-116; assay: Induction of cell cycle arrest in human HCT-116 cells assessed as downregulation of CDK4 expression at 2.5 to 10 uM incubated for 48 hrs by Western blotting analysis; type: functional, cell-based; details: dose 2.5-10 µM
[12] = tested on: HCT-116; assay: Antitumor activity against human HCT-116 cells xenografted in BALB/c mouse assessed as reduction in tumor weight at 5 to 10 mg/kg, ip administered every 2 days; type: functional, organism-based; details: dose 5-10 mg/kg
[13] = tested on: HCT-116; assay: Induction of cell cycle arrest in human HCT-116 cells assessed as downregulation of p-Rb expression at 2.5 to 10 uM incubated for 48 hrs by Western blotting analysis; type: functional, cell-based; details: dose 2.5-10 µM
[14] = tested on: HCT-116; assay: Induction of apoptosis in human HCT-116 cells assessed as viable cells at 2.5 uM incubated for 48 hrs by Annexin V-PE and propidium iodide staining based flow cytometry analysis (reference value: 97.8%); type: functional; details: read-out: Activity
[15] = tested on: HCT-116; assay: Induction of apoptosis in human HCT-116 cells assessed as upregulation of cleaved caspase-7 expression incubated for 48 hrs by Western blotting analysis; type: functional, cell-based; details: dose 2.5-10 µM
[16] = biological target: Serine/threonine-protein kinase AKT (Homo sapiens) (UniProt P31751+Q9Y243+P31749); assay: Inhibition of AKT phosphorylation in human HCT-116 cells by incubated for 48 hrs Western blotting analysis; type: cell-based; details: dose 2.5-10 µM
[17] = Toxicity in BALB/c nude mouse assessed as adverse effect at 5 to 10 mg/kg, ip administered every 2 days; type: organism-based; details: in vivo, 48 h, dose 5-10 mg/kg
[18] = tested on: HCT-116; assay: Induction of apoptosis in human HCT-116 cells assessed as necrotic cells at 10 uM incubated for 48 hrs by Annexin V-PE and propidium iodide staining based flow cytometry analysis (reference value: 1.3%); type: functional
[19] = Acute toxicity in BALB/c mouse assessed as kidney lesion at 50 to 100 mg/kg, ip measured every 2 days by H and E staining based assay; type: organism-based; details: in vivo, 48 h, dose 50-100 mg/kg
[20] = tested on: HCT-116; assay: Antitumor activity against human HCT-116 cells xenografted in BALB/c mouse assessed as reduction in Ki67 protein expression at 5 to 10 mg/kg, ip measured every 2 days by immunohistochemistry analysis; type: functional, organism-based; details: dose 5-10 mg/kg
[21] = tested on: RKO; assay: Induction of apoptosis in human RKO cells assessed as viable cells at 5 uM incubated for 48 hrs by Annexin V-PE and propidium iodide staining based flow cytometry analysis (reference value: 99.2%); type: functional; details: read-out: Activity
[22] = tested on: HCT-116; assay: Inhibition of colony formation in human HCT-116 cells at 4 uM incubated for 10 days with every 3 days of media replacement by crystal violet staining based assay; type: functional; details: HCT-116, 240 h, time 10 day
[23] = tested on: HCT-116; assay: Induction of apoptosis in human HCT-116 cells assessed as early apoptotic cells at 10 uM incubated for 48 hrs by Annexin V-PE and propidium iodide staining based flow cytometry analysis (reference value: 0.4%); type: functional
[24] = tested on: RKO; assay: Induction of apoptosis in human RKO cells assessed as viable cells at 2.5 uM incubated for 48 hrs by Annexin V-PE and propidium iodide staining based flow cytometry analysis (reference value: 99.2%); type: functional; details: read-out: Activity
[25] = Acute toxicity in BALB/c mouse assessed as spleen lesion at 50 to 100 mg/kg, ip measured every 2 days by H and E staining based assay; type: organism-based; details: in vivo, 48 h, dose 50-100 mg/kg
[26] = tested on: HCT-116; assay: Induction of apoptosis in human HCT-116 cells assessed as late apoptotic cells at 2.5 uM incubated for 48 hrs by Annexin V-PE and propidium iodide staining based flow cytometry analysis (reference value: 0.5%); type: functional
[27] = tested on: RKO; assay: Inhibition of cell migration in human RKO cells at 2.5 to 10 uM measured upto 48 hrs by scratch wound healing assay; type: functional, cell-based; details: dose 2.5-10 µM
[28] = tested on: HCT-116; assay: Induction of cell cycle arrest in human HCT-116 cells assessed as upregulation of p53 expression at 2.5 to 10 uM incubated for 48 hrs by Western blotting analysis; type: functional, cell-based; details: dose 2.5-10 µM
[29] = tested on: HCT-116; assay: Induction of apoptosis in human HCT-116 cells assessed as early apoptotic cells at 5 uM incubated for 48 hrs by Annexin V-PE and propidium iodide staining based flow cytometry analysis (reference value: 0.4%); type: functional
[30] = tested on: HCT-116; assay: Induction of apoptosis in human HCT-116 cells assessed as necrotic cells at 2.5 uM incubated for 48 hrs by Annexin V-PE and propidium iodide staining based flow cytometry analysis (reference value: 1.3%); type: functional
[31] = tested on: RKO; assay: Induction of cell cycle arrest in human RKO cells assessed as upregulation of p53 expression at 2.5 to 10 uM incubated for 48 hrs by Western blotting analysis; type: functional, cell-based; details: dose 2.5-10 µM
[32] = tested on: HCT-116; assay: Induction of apoptosis in human HCT-116 cells assessed as viable cells at 10 uM incubated for 48 hrs by Annexin V-PE and propidium iodide staining based flow cytometry analysis (reference value: 97.8%); type: functional; details: read-out: Activity
[33] = tested on: HCT-116; assay: Induction of apoptosis in human HCT-116 cells assessed as late apoptotic cells at 10 uM incubated for 48 hrs by Annexin V-PE and propidium iodide staining based flow cytometry analysis (reference value: 0.5%); type: functional
[34] = tested on: RKO; assay: Cytotoxicity against human RKO cells incubated for 72 hrs by MTS assay; type: functional, cell-based
[35] = tested on: RKO; assay: Induction of cell cycle arrest in human RKO cells assessed as downregulation of CDK4 expression at 2.5 to 10 uM incubated for 48 hrs by Western blotting analysis; type: functional, cell-based; details: dose 2.5-10 µM

Serine/threonine-protein kinase AKT (Homo sapiens), sequence (P31749 whole entry, looked up): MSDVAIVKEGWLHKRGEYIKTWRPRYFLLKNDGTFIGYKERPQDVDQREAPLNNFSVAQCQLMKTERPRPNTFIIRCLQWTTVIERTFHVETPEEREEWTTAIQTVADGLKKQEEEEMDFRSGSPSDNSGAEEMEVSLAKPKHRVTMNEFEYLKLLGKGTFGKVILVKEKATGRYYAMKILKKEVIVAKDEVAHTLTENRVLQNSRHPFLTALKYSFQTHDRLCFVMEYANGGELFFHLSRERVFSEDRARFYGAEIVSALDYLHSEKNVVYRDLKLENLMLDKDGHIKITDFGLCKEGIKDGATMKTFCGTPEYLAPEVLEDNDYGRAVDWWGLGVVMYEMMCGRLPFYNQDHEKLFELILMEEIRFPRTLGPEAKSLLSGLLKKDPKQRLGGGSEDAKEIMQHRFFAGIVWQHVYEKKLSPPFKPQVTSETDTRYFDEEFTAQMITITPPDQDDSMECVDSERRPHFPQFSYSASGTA
Serine/threonine-protein kinase AKT (Homo sapiens), sequence (P31751 whole entry, looked up): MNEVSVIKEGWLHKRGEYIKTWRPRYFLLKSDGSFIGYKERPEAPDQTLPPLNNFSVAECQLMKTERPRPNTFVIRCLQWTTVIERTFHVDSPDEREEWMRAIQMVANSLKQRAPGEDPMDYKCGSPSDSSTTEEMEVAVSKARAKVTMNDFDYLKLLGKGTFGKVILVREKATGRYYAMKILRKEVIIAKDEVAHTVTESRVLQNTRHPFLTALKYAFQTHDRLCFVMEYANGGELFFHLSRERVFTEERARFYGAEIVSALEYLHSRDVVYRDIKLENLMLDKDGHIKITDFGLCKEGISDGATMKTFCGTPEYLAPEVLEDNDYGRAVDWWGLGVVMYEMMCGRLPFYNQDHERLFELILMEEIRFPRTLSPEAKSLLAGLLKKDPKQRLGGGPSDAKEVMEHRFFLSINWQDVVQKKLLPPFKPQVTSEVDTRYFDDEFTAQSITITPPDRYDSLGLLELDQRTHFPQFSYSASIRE
Serine/threonine-protein kinase AKT (Homo sapiens), sequence (Q9Y243 whole entry, looked up): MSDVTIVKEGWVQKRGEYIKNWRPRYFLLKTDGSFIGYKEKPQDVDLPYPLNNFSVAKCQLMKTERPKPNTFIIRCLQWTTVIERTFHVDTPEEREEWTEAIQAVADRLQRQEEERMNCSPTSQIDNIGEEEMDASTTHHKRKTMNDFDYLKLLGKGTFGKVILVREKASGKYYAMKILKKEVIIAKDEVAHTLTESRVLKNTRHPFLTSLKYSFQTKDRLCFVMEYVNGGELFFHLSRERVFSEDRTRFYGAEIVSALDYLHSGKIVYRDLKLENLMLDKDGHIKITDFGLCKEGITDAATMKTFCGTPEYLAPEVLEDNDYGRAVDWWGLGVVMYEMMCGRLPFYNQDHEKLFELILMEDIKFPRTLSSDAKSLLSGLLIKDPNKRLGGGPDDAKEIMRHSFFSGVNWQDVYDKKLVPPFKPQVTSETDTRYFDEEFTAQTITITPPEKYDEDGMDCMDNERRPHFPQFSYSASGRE

SMILES: C=C(C)C(=O)N1CCc2cccc(C3=CC(=O)N(C)C3=O)c21
- Activity [1]: Non-Toxic
- Activity [2]: 0.5%
- Activity [3]: Dose-Dependent Effect
- inhibition at 4 µM [4]: 100%
- Activity [5]: Non-Toxic
- Activity [6]: Non-Toxic
- Activity [7]: 3.2%
- Activity [8]: 1.1%
- inhibition [9]: Active
- Activity [10]: Active
- Activity [11]: Active
- Activity [12]: Active
- Activity [13]: Active
- viability at 2.5 µM [14]: 96.5%
- Activity [15]: Dose-Dependent Effect
- inhibition [16]: Dose-Dependent Effect
- Activity [17]: Non-Toxic
- Activity [18]: 7.2%
- Activity [19]: Non-Toxic
- Activity [20]: Active
- viability at 5 µM [21]: 98%
- inhibition at 4 µM [22]: 100%
- Activity [23]: 5%
- viability at 2.5 µM [24]: 99%
- Activity [25]: Non-Toxic
- Activity [26]: 1%
- inhibition [27]: Active
- Activity [28]: Active
- Activity [29]: 1.5%
- Activity [30]: 1.8%
- Activity [31]: Active
- viability at 10 µM [32]: 83.1%
- Activity [33]: 4.6%
- IC50 [34]: 1.1 µM
- Activity [35]: Active
